Biological target: CD73 (Homo sapiens (Human), UniProt P21589)
Assay: Biochemical Assay (CD73 inhibition, AMP hydrolysis, Malachite Green readout)
Settings: CD73 0.3208 nM, AMP 15 μM, Tris-HCl pH 7.4, Malachite Green absorbance
Procedure: Example A1: Biochemical Assay
Assay Reaction Conditions
• Assay Volume: 70 μl • Reaction Volume: 50 μl • CD73: 0.3208 nM • AMP: 15 μM • Assay Buffer: 2 5 mM Tris-HCL, pH 7.4, 0.01% Brij-35, 0.01% BSA, 5 mM MgCl2 Assay Procedure:
Made dose titration of testing compounds in assay buffer, 10 points ½ log titrations in duplicates starting at 100 μM.
Added 25 μl of CD73 to each well for a final concentration of 320 pM.
Incubated at RT for 15 min.
Added 25 μl of AMP to each well for a final concentration of 15 μM.
Incubated at RT for 10 min.
Added 10 μl of Malachite Green Reagent A, incubate at RT for 10 min.
Added 10 μl of Malachite Green Reagent B, incubate at RT for 45 min. […]
The ability of the compounds disclosed herein to inhibit CD73 activity was quantified and the respective IC50 values were determined. Table 1 provides the biochemical IC50 values of compounds disclosed herein.

CD73, sequence (P21589 27-574): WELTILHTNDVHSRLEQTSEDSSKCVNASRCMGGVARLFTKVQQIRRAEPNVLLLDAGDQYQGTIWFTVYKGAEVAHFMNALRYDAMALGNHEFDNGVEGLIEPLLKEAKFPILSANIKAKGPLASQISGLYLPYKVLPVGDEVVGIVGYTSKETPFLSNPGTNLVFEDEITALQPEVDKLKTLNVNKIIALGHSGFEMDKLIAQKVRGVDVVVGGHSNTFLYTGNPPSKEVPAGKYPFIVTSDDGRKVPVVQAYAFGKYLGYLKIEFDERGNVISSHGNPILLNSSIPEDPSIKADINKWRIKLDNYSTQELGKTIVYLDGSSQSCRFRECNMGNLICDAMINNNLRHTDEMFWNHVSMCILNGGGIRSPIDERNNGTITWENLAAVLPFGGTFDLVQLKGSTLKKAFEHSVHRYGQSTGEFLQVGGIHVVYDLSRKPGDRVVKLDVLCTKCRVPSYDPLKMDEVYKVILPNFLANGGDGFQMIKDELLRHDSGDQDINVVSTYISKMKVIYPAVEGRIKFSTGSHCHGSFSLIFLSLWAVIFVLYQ

Row | IC50 [nM] | SMILES
1 | ≤ 500 | O=P(O)(O)COC[C@H]1O[C@@H](n2ncc3c(NCc4cccc(F)c4)nc(Cl)nc32)[C@H](O)[C@@H]1O [Example 29, ((((2R,3S,4R,5R)-5-(6-chloro-4-((3-fluorobenzyl)amino)-1H-pyrazolo[3,4-d]pyrimidin-1-yl)-3,4-dihydroxytetrahydrofuran-2-yl)methoxy)methyl)phosphonic acid]
2 | ≤ 500 | O=P(O)(O)COC[C@H]1O[C@@H](n2ncc3c(NCc4cccc(C(F)(F)F)c4)nc(Cl)nc32)[C@H](O)[C@@H]1O [Example 32, ((((2R,3S,4R,5R)-5-(6-chloro-4-((3-(trifluoromethyl)benzyl)amino)-1H-pyrazolo[3,4-d]pyrimidin-1-yl)-3,4-dihydroxytetrahydrofuran-2-yl)methoxy)methyl)phosphonic acid]
3 | ≤ 500 | O=P(O)(O)COC[C@H]1O[C@@H](n2ncc3c(NCC4CC4)nc(Cl)nc32)[C@H](O)[C@@H]1O [Example 38, ((((2R,3S,4R,5R)-5-(6-chloro-4-((cyclopropylmethyl)amino)-1H-pyrazolo[3,4-d]pyrimidin-1-yl)-3,4-dihydroxytetrahydrofuran-2-yl)methoxy)methyl)phosphonic acid]
4 | ≤ 500 | Cc1cccc(CNc2nc(Cl)nc3c2cnn3[C@@H]2O[C@H](COCP(=O)(O)O)[C@@H](O)[C@H]2O)c1 [Example 41, ((((2R,3S,4R,5R)-5-(6-chloro-4-((3-methylbenzyl)amino)-1H-pyrazolo[3,4-d]pyrimidin-1-yl)-3,4-dihydroxytetrahydrofuran-2-yl)methoxy)methyl)phosphonic acid]
5 | ≤ 500 | O=P(O)(O)COC[C@H]1O[C@@H](n2ncc3c(N4CCOCC4)nc(Cl)nc32)[C@H](O)[C@@H]1O [Example 42, ((((2R,3S,4R,5R)-5-(6-chloro-4-morpholino-1H-pyrazolo[3,4-d]pyrimidin-1-yl)-3,4-dihydroxytetrahydrofuran-2-yl)methoxy)methyl)phosphonic acid]
6 | ≤ 500 | CCNc1nc(Cl)nc2c1cnn2[C@@H]1O[C@H](COCP(=O)(O)O)[C@@H](O)[C@H]1O [Example 43, ((((2R,3S,4R,5R)-5-(6-chloro-4-(ethylamino)-1H-pyrazolo[3,4-d]pyrimidin-1-yl)-3,4-dihydroxytetrahydrofuran-2-yl)methoxy)methyl)phosphonic acid]
7 | ≤ 500 | O=P(O)(O)COC[C@H]1O[C@@H](n2ncc3c(NC[C@H]4CCOC4)nc(Cl)nc32)[C@H](O)[C@@H]1O [Example 45, ((((2R,3S,4R,5R)-5-(6-chloro-4-((((R)-tetrahydrofuran-3-yl)methyl)amino)-1H-pyrazolo[3,4-d]pyrimidin-1-yl)-3,4-dihydroxytetrahydrofuran-2-yl)methoxy)methyl)phosphonic acid]
8 | ≤ 500 | N#Cc1cccc(CNc2nc(Cl)nc3c2cnn3[C@@H]2O[C@H](COCP(=O)(O)O)[C@@H](O)[C@H]2O)c1 [Example 46, ((((2R,3S,4R,5R)-5-(6-chloro-4-((3-cyanobenzyl)amino)-1H-pyrazolo[3,4-d]pyrimidin-1-yl)-3,4-dihydroxytetrahydrofuran-2-yl)methoxy)methyl)phosphonic acid]
9 | ≤ 500 | Cn1ncc2cccc(CNc3nc(Cl)nc4c3cnn4[C@@H]3O[C@H](COCP(=O)(O)O)[C@@H](O)[C@H]3O)c21 [Example 48, ((((2R,3S,4R,5R)-5-(6-chloro-4-(((1-methyl-1H-indazol-7-yl)methyl)amino)-1H-pyrazolo[3,4-d]pyrimidin-1-yl)-3,4-dihydroxytetrahydrofuran-2-yl)methoxy)methyl)phosphonic acid]
10 | ≤ 500 | O=P(O)(O)COC[C@H]1O[C@@H](n2ncc3c(NCc4cccc5ccccc45)nc(Cl)nc32)[C@H](O)[C@@H]1O [Example 49, ((((2R,3S,4R,5R)-5-(6-chloro-4-((naphthalen-1-ylmethyl)amino)-1H-pyrazolo[3,4-d]pyrimidin-1-yl)-3,4-dihydroxytetrahydrofuran-2-yl)methoxy)methyl)phosphonic acid]
11 | ≤ 500 | O=P(O)(O)COC[C@H]1O[C@@H](n2ncc3c(NCc4cccc5ncccc45)nc(Cl)nc32)[C@H](O)[C@@H]1O [Example 51, ((((2R,3S,4R,5R)-5-(6-chloro-4-((quinolin-5-ylmethyl)amino)-1H-pyrazolo[3,4-d]pyrimidin-1-yl)-3,4-dihydroxytetrahydrofuran-2-yl)methoxy)methyl)phosphonic acid]
12 | ≤ 500 | CN(c1nc(Cl)nc2c1cnn2[C@@H]1O[C@H](COCP(=O)(O)O)[C@@H](O)[C@H]1O)C1CCCC1 [Example 53, ((((2R,3S,4R,5R)-5-(6-chloro-4-(cyclopentyl(methyl)amino)-1H-pyrazolo[3,4-d]pyrimidin-1-yl)-3,4-dihydroxytetrahydrofuran-2-yl)methoxy)methyl)phosphonic acid]

The next lines start with the compound.

Row | SMILES | IC50 [nM]
13 | O=C(CP(=O)(O)O)N(Cc1ccccc1)C[C@H]1O[C@@H](n2ncc3c(NCc4ccccc4Cl)nc(Cl)nc32)[C@H](O)[C@@H]1O [Example 28, (2-(benzyl(((2R,3S,4R,5R)-5-(6-chloro-4-((2-chlorobenzyl)amino)-1H-pyrazolo[3,4-d]pyrimidin-1-yl)-3,4-dihydroxytetrahydrofuran-2-yl)methyl)amino)-2-oxoethyl)phosphonic acid] | > 1000
14 | O=P(O)(O)COC[C@H]1O[C@@H](n2nnc3c(NCc4ccccc4Cl)nc(Cl)nc32)[C@H](O)[C@@H]1O [Example 30, ((((2R,3S,4R,5R)-5-(5-chloro-7-((2-chlorobenzyl)pamino)-3H-[1,2,3]triazolo[4,5-d]pyrimidin-3-yl)-3,4-dihydroxytetrahydrofuran-2-yl)methoxy)methyl)phosphonic acid] | ≤ 500
15 | CN(c1nc(Cl)nc2c1cnn2[C@@H]1O[C@H](COCP(=O)(O)O)[C@@H](O)[C@H]1O)[C@H]1CCc2ccccc21 [Example 31, ((((2R,3S,4R,5R)-5-(6-chloro-4-(((S)-2,3-dihydro-1H-inden-1-yl)(methyl)amino)-1H-pyrazolo[3,4-d]pyrimidin-1-yl)-3,4-dihydroxytetrahydrofuran-2-yl)methoxy)methyl)phosphonic acid] | ≤ 500
16 | C[C@H](Nc1nc(Cl)nc2c1cnn2[C@@H]1O[C@H](COCP(=O)(O)O)[C@@H](O)[C@H]1O)c1ccccc1Cl [Example 33, ((((2R,3S,4R,5R)-5-(6-chloro-4-(((S)-1-(2-chlorophenyl)ethyl)amino)-1H-pyrazolo[3,4-d]pyrimidin-1-yl)-3,4-dihydroxytetrahydrofuran-2-yl)methoxy)methyl)phosphonic acid] | ≤ 500
17 | C[C@H](Nc1nc(Cl)nc2c1cnn2[C@@H]1O[C@H](COCP(=O)(O)O)[C@@H](O)[C@H]1O)c1cccc(Cl)c1 [Example 34, ((((2R,3S,4R,5R)-5-(6-chloro-4-(((S)-1-(3-chlorophenyl)ethyl)amino)-1H-pyrazolo[3,4-d]pyrimidin-1-yl)-3,4-dihydroxytetrahydrofuran-2-yl)methoxy)methyl)phosphonic acid] | ≤ 500
18 | C[C@@H](c1cccc(Cl)c1)N(C)c1nc(Cl)nc2c1cnn2[C@@H]1O[C@H](COCP(=O)(O)O)[C@@H](O)[C@H]1O [Example 36] | > 1000
19 | CN(Cc1cccc(Cl)c1)c1nc(Cl)nc2c1cnn2[C@@H]1O[C@H](COCP(=O)(O)O)[C@@H](O)[C@H]1O [Example 37, ((((2R,3S,4R,5R)-5-(6-chloro-4-((3-chlorobenzyl)(methyl)amino)-1H-pyrazolo[3,4-d]pyrimidin-1-yl)-3,4-dihydroxytetrahydrofuran-2-yl)methoxy)methyl)phosphonic acid] | ≤ 500
20 | CN(Cc1cccc(Cl)c1)c1nc(Cl)nc2c1nnn2[C@@H]1O[C@H](COCP(=O)(O)O)[C@@H](O)[C@H]1O [Example 39, ((((2R,3S,4R,5R)-5-(5-chloro-7-((3-chlorobenzyl)(methyl)amino)-3H-[1,2,3]triazolo[4,5-d]pyrimidin-3-yl)-3,4-dihydroxytetrahydrofuran-2-yl)methoxy)methyl)phosphonic acid] | ≤ 500
21 | O=P(O)(O)COC[C@H]1O[C@@H](n2ccc3c(NCc4ccccc4Cl)nc(Cl)nc32)[C@H](O)[C@@H]1O [Example 40, ((((2R,3S,4R,5R)-5-(2-chloro-4-((2-chlorobenzyl)amino)-7H-pyrrolo[2,3-d]pyrimidin-7-yl)-3,4-dihydroxytetrahydrofuran-2-yl)methoxy)methyl)phosphonic acid] | ≤ 500
22 | Cc1nc(NCc2cccc(Cl)c2)c2cnn([C@@H]3O[C@H](COCP(=O)(O)O)[C@@H](O)[C@H]3O)c2n1 [Example 44, ((((2R,3S,4R,5R)-5-(4-((3-chlorobenzyl)amino)-6-methyl-1H-pyrazolo[3,4-d]pyrimidin-1-yl)-3,4-dihydroxytetrahydrofuran-2-yl)methoxy)methyl)phosphonic acid] | > 1000
23 | C[C@H](OCP(=O)(O)O)[C@H]1O[C@@H](n2ncc3c(NCc4ccccc4Cl)nc(Cl)nc32)[C@H](O)[C@@H]1O [Example 50, (((S)-1-((2S,3S,4R,5R)-5-(6-chloro-4-((2-chlorobenzyl)amino)-1H-pyrazolo[3,4-d]pyrimidin-1-yl)-3,4-dihydroxytetrahydrofuran-2-yl)ethoxy)methyl)phosphonic acid] | > 1000
24 | CC(C)COc1nc(NCc2cccc(Cl)c2)c2cnn([C@@H]3O[C@H](COCP(=O)(O)O)[C@@H](O)[C@H]3O)c2n1 [Example 54, ((((2R,3S,4R,5R)-5-(4-((3-chlorobenzyl)amino)-6-isobutoxy-1H-pyrazolo[3,4-d]pyrimidin-1-yl)-3,4-dihydroxytetrahydrofuran-2-yl)methoxy)methyl)phosphonic acid] | > 1000

Source: patent publication US11377469B2, “CD73 inhibitors” (ORIC Pharmaceuticals, Inc., priority 2017, dated 2022)
